From patent US20220324835A1 (Nurix Therapeutics, Inc., priority 2018, published 2022)

How the values were obtained:
Format in all cases: cell-based
[1] = system: primary human total T-cells; assay: T-cell activation assessed by cell proliferation (Cell Trace Violet)
In short: (§1)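 Readouts are fold change versus compound-free cells under the same stimulation: plate-bound anti-CD3 (OKT3, 10 μg/mL coating) alone or with soluble anti-CD28 at 5 μg/mL, for 48 h. Isolated human total T cells (1×10^5/well) got inhibitor 1 h beforehand at concentrations such as 10, 1.11 or 0.123 μM. Measured: GM-CSF/IFNγ/TNFα secretion, surface CD69, proliferation by dye dilution.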

[2] = system: primary human total T-cells; assay: T-cell activation assessed by cytokine secretion (GM-CSF, IFNγ, TNFα)
In short: as §1

primary human B cells = assay: B cell activation assay (CD69 on anti-IgM stimulated B cells); conditions: AUC of dose response curve (10 μM to 1 nM) of CD69 MFI normalized to DMSO control
In short: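 Negatively selected PBMC-derived B cells (>95% CD20+) treated with Cbl-b inhibitors from 10 μM to 1 nM (DMSO <0.5%) and stimulated with anti-IgM for 20 h at 37° C. CD69 MFI on CD20+ IgD+ cells by flow cytometry; dose-response AUC normalized to DMSO plus 2.5 μg/mL anti-IgM-F(ab′)2, binned A-D.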

[3] = system: primary human total T-cells; assay: T-cell activation assessed by CD69 expression
In short: as §1

T-cell = assay: CD25 cell surface staining on T-cells stimulated with anti-CD3 antibody alone (Biological Example 2); conditions: primary human total T-cells, baseline = anti-CD3/anti-CD28 stimulated cells without inhibitor, read-out: CD25 staining, Anti-CD3 stimulation, fold change over baseline
[4] = CD3/CD28 stimulation, CD4 T-cells, read-out: % CP (cell proliferation) (CD4)
[5] = CD3/CD28 stimulation, CD8 T-cells, read-out: % CP (cell proliferation) (CD8)
[6] = CD3 alone stimulation, CD8 T-cells, read-out: % CP (cell proliferation) (CD8)
[7] = CD3/CD28 stimulation, read-out: GM-CSF secretion
[8] = CD3/CD28 stimulation, read-out: IFNγ secretion
[9] = CD3/CD28 stimulation, read-out: TNFα secretion
[10] = CD3 alone stimulation, read-out: GM-CSF secretion
[11] = CD3 alone stimulation, read-out: IFNγ secretion
[12] = CD3 alone stimulation, read-out: TNFα secretion
[13] = CD3/CD28 stimulation, CD4 T-cells, read-out: % CD69+ (CD4)
[14] = CD3/CD28 stimulation, CD8 T-cells, read-out: % CD69+ (CD8)
[15] = CD3 alone stimulation, CD4 T-cells, read-out: % CD69+ (CD4)
[16] = CD3 alone stimulation, CD8 T-cells, read-out: % CD69+ (CD8)

| SMILES | fold induction at 1.11 µM [1, 4] | fold induction at 10 µM [1, 4] | fold induction at 1.11 µM [1, 5] | fold induction at 10 µM [1, 5] | fold induction at 1.11 µM [1, 6] | fold induction at 10 µM [1, 6] | fold induction at 1.11 µM [2, 7] | fold induction at 1.11 µM [2, 8] | fold induction at 1.11 µM [2, 9] | fold induction at 10 µM [2, 7] | fold induction at 10 µM [2, 8] | fold induction at 10 µM [2, 9] | fold induction at 1.11 µM [2, 10] | fold induction at 1.11 µM [2, 11] | fold induction at 1.11 µM [2, 12] | fold induction at 10 µM [2, 10] | fold induction at 10 µM [2, 11] | fold induction at 10 µM [2, 12] | CD69 MFI AUC (primary human B cells) | fold induction at 1.11 µM [3, 13] | other results |
| --- | --- | --- | --- | --- | --- | --- | --- | --- | --- | --- | --- | --- | --- | --- | --- | --- | --- | --- | --- | --- | --- |
| C[C@H](Sc1nncn1C)c1cccc(NC(=O)c2cc(C(=O)N3CC[C@H](O)C3)ccn2)c1 [Compound 140, 4-[[(3S)-3-hydroxypyrrolidin-1-yl]carbonyl]-N-[3-[(1S)-1-[(4-methyl-4H-1,2,4-triazol-3-yl)sulfanyl]ethyl]phenyl]pyridine-2-carboxamide] | > 4 | > 4 | > 4 | > 4 | > 4 | > 4 | 2.01 to 4 | 2.01 to 3 | 2.01 to 4 | > 4 | > 4 | 2.01 to 4 | 2.01 to 4 | 3.01 to 4 | 1.51 to 2 | 2.01 to 4 | > 4 | 2.01 to 4 | A (A indicates ≤0.5) | 1.4 to 1.6 | fold induction at 10 µM [3, 13]: > 1.6; fold induction at 1.11 µM [3, 14]: 1.2 to 1.4; fold induction at 10 µM [3, 14]: 1.2 to 1.4; fold induction at 1.11 µM [3, 15]: > 1.6; fold induction at 10 µM [3, 15]: > 1.6; fold induction at 1.11 µM [3, 16]: 1.4 to 1.6; fold induction at 10 µM [3, 16]: 1.4 to 1.6 |
| C[C@H](Cc1nncn1C)c1cccc(NC(=O)c2cccc(CCO)n2)c1 [Compound 202, 6-(2-hydroxyethyl)-N-[3-[(2R)-1-(4-methyl-4H-1,2,4-triazol-3-yl)propan-2-yl]phenyl]pyridine-2-carboxamide] | < 2 | 3.01 to 4 | < 2 | 2.01 to 3 | < 2 | < 2 | ≤ 1.5 | < 2 | ≤ 1.5 | 1.51 to 2 | > 4 | 1.51 to 2 | ≤ 1.5 | < 2 | ≤ 1.5 | 1.51 to 2 | < 2 | ≤ 1.5 | C (C indicates 1.01-1.50) | ≤ 1.2 | fold induction at 10 µM [3, 13]: 1.2 to 1.4; fold induction at 1.11 µM [3, 14]: ≤ 1.2; fold induction at 10 µM [3, 14]: ≤ 1.2; fold induction at 1.11 µM [3, 15]: ≤ 1.2; fold induction at 10 µM [3, 15]: 1.2 to 1.4; fold induction at 1.11 µM [3, 16]: ≤ 1.2; fold induction at 10 µM [3, 16]: ≤ 1.2 |
| C[C@H](Cc1nncn1C)c1cccc(N2Cc3c(ccnc3C3CC3)C2=O)c1 [Compound 257, 4-cyclopropyl-2-[3-[(1R)-1-methyl-2-(4-methyl-1,2,4-triazol-3-yl)ethyl]phenyl]-3H-pyrrolo[3,4-c]pyridin-1-one] | 2.01 to 3 | > 4 | < 2 | 3.01 to 4 | < 2 | 3.01 to 4 | 2.01 to 4 | < 2 | 1.51 to 2 | > 4 | 2.01 to 3 | 2.01 to 4 | 1.51 to 2 | < 2 | ≤ 1.5 | 2.01 to 4 | 2.01 to 3 | ≤ 1.5 | B (B indicates 0.5-1.00) | ≤ 1.2 | fold induction at 10 µM [3, 13]: 1.4 to 1.6; fold induction at 1.11 µM [3, 14]: ≤ 1.2; fold induction at 10 µM [3, 14]: 1.2 to 1.4; fold induction at 1.11 µM [3, 15]: ≤ 1.2; fold induction at 10 µM [3, 15]: 1.2 to 1.4; fold induction at 1.11 µM [3, 16]: ≤ 1.2; fold induction at 10 µM [3, 16]: 1.2 to 1.4 |
| Cn1cnnc1[C@@H]1C[C@@H]1c1cccc(N2Cc3c(cccc3C(F)(F)F)C2=O)c1 [Compound 282, 2-(3-((1S,2R)-2-(4-methyl-4H-1,2,4-triazol-3-yl)cyclopropyl)phenyl)-4-(trifluoromethyl)isoindolin-1-one] | < 2 | > 4 | < 2 | 2.01 to 3 | < 2 | 3.01 to 4 | 1.51 to 2 | < 2 | ≤ 1.5 | 2.01 to 4 | 2.01 to 3 | 2.01 to 4 | ≤ 1.5 | < 2 | ≤ 1.5 | 2.01 to 4 | 2.01 to 3 | ≤ 1.5 | B (B indicates 0.5-1.00) | ≤ 1.2 | fold induction at 10 µM [3, 13]: 1.2 to 1.4; fold induction at 1.11 µM [3, 14]: ≤ 1.2; fold induction at 10 µM [3, 14]: 1.2 to 1.4; fold induction at 1.11 µM [3, 15]: ≤ 1.2; fold induction at 10 µM [3, 15]: 1.2 to 1.4; fold induction at 1.11 µM [3, 16]: ≤ 1.2; fold induction at 10 µM [3, 16]: ≤ 1.2 |
| C[C@H](Cc1nncn1C)c1ccnc(NC(=O)c2cccc(C(F)(F)F)n2)c1 [Compound 302, (R)-N-(4-(1-(4-methyl-4H-1,2,4-triazol-3-yl)propan-2-yl)pyridin-2-yl)-6-(trifluoromethyl)picolinamide] | – | – | – | – | – | – | – | – | – | – | – | – | – | – | – | – | – | – | B (B indicates 0.5-1.00) | – | – |
| C[C@H](Cc1nncn1C)c1cccc(NC(=O)c2nc(C(F)(F)F)c[nH]2)c1 [Compound 326, (R)-N-(3-(1-(4-methyl-4H-1,2,4-triazol-3-yl)propan-2-yl)phenyl)-4-(trifluoromethyl)-1H-imidazole-2-carboxamide] | 2.01 to 3 | > 4 | 2.01 to 3 | 3.01 to 4 | 2.01 to 3 | > 4 | 1.51 to 2 | < 2 | ≤ 1.5 | 2.01 to 4 | 2.01 to 3 | 2.01 to 4 | 1.51 to 2 | < 2 | ≤ 1.5 | 2.01 to 4 | 2.01 to 3 | 1.51 to 2 | A (A indicates ≤0.5) | 1.2 to 1.4 | fold induction at 10 µM [3, 13]: 1.4 to 1.6; fold induction at 1.11 µM [3, 14]: ≤ 1.2; fold induction at 10 µM [3, 14]: 1.2 to 1.4; fold induction at 1.11 µM [3, 15]: 1.2 to 1.4; fold induction at 10 µM [3, 15]: 1.4 to 1.6; fold induction at 1.11 µM [3, 16]: ≤ 1.2; fold induction at 10 µM [3, 16]: 1.2 to 1.4 |
| Cn1cnnc1[C@@H]1C[C@@H]1c1cccc(N2Cc3c(ccnc3C(F)(F)F)C2=O)c1 [Compound 369, 2-{3-[(1S,2R)-2-(4-methyl-4H-1,2,4-triazol-3-yl)cyclopropyl]phenyl}-4-(trifluoromethyl)-1H,2H,3H-pyrrolo[3,4-c]pyridin-1-one] | < 2 | > 4 | < 2 | 2.01 to 3 | < 2 | < 2 | ≤ 1.5 | < 2 | ≤ 1.5 | 2.01 to 4 | < 2 | 2.01 to 4 | ≤ 1.5 | < 2 | ≤ 1.5 | ≤ 1.5 | < 2 | 1.51 to 2 | C (C indicates 1.01-1.50) | ≤ 1.2 | fold induction at 1 µM (T-cell; 1 μM compound): 0.601 to 0.8; fold induction at 8 µM (T-cell; 8 μM compound): 0.801 to 1; fold induction at 10 µM [3, 13]: 1.4 to 1.6; fold induction at 1.11 µM [3, 14]: ≤ 1.2; fold induction at 10 µM [3, 14]: 1.2 to 1.4; fold induction at 1.11 µM [3, 15]: ≤ 1.2; fold induction at 10 µM [3, 15]: ≤ 1.2; fold induction at 1.11 µM [3, 16]: ≤ 1.2; fold induction at 10 µM [3, 16]: ≤ 1.2 |
